According to patent US6472158B1, “Ustilipides, method for the production and the use thereof” (Aventis Pharma Deutschland GmbH, priority 1998, dated 2002):

Key:
human erythrocytes = assay: In vitro hemolysis; type: cell-based
Procedure: On use of the schizonellins, a fatal 100% hemolysis occurs at concentrations as low as 10 and 30 μg/ml respectively. Determination of the hemolytic effect of ustilipides A, B and C gave the following results, the hemolysis being measured by the percentage of ruptured cells.
The hemolysis experiments were carried out with human erythrocytes.
Venous blood freshly taken from humans, rhesus monkeys or beagle dogs is used to measure the hemolytic activity. The blood is collected in heparinized tubes and distributed in aliquots of 200 μl to 12 polyethylene tubes. One aliquot is mixed with 200 μl of distilled water and serves as 100% standard, and another is mixed with 200 μl of physiological saline (0.9% NaCl) (0% standard). 200 μl portions of substance dilutions in physiological saline to […] are distributed to the other tubes. All the tubes are cautiously agitated and then incubated at 37° C. for 3 hours. The 100% standard is then made up with 5 ml of distilled water, and the other tubes are each made up with 5 ml of physiological saline, and are centrifuged at 700 g for 5 minutes.
The hemolysis is determined by measuring the absorption of the supernatant in a spectrophotometer at a wavelength of 540 nm. The absorption of the standard with complete hemolysis is set at 100%. The absorption of the test product dilutions and of the 0% standard are measured and stated as a percentage of the maximum inducible hemolysis.

Dopamine D3 receptor = biological target: T1, Dopamine D3 receptor (Homo sapiens, UniProt P35462); assay: Dopamine D3 receptor binding assay ([N-methyl-3H]spiroperidol, CHO membranes); settings: human D3 receptor in CHO membranes, room temperature, 60 minutes
T1 construct: expressed in transfected cells
Procedure: (§1) The ustilipides effectively antagonize dopamine D2 and D3 receptors. One measure of their activity is the IC50 which indicates the concentration of inhibitor at which the rate of the normal enzymatic reaction (or receptor antagonism) is reduced by 50%.
(§2) The D3 and D2 long genes were isolated from a human cDNA library and stably transfected into CHO cells (CHO=Chinese hamster ovary). Membrane fractions are obtained from single clones with high-level expression. The binding assay is carried out in 96-well plates at room temperature for 60 minutes. The reaction mixture contains 50 μl of [N-methyl-^3H]spiroperidol, 50 μl of test substance or S(−)-eticlopride made for nonspecific binding and 100 μl of membrane. The assay is stopped by rapid filtration through a GF/B filter into a Skatron 96 cell harvester. The filters are cut up and placed in containers (T trays, Wallac), and the radioactivity is determined in a scintillation counter.
(§3) The specific binding is defined as the difference between the total binding and the binding in the presence of 10 μM S(−)-eticlopride. The total binding corresponds approximately to 10% of the counts of the ligands employed in total.
(§4) The inhibition of the binding by a test substance is calculated by correlation with the control reaction. Analysis of the data took place using the LIGAND software package of McPherson, Munson & Rodbard, Elsevier-BIOSOFT.

[1] = Physicochemical properties (solubility, stability); settings: for solubility: alcohols and other organic solvents
Source text: The physicochemical and spectroscopic properties of the ustilipides can be summarized as follows: […]

[2] = biological target: T2, Dopamine D2 receptor (D2 long) (Homo sapiens, UniProt P14416); assay: Dopamine D2 receptor binding assay ([N-methyl-3H]spiroperidol, CHO membranes); settings: human D2 long receptor in CHO membranes, room temperature, 60 minutes
T2 construct: expressed in transfected cells
Procedure: as §1, §2, §3, §4

[3] = neutral and weakly acidic medium

T2 sequence (P14416 whole entry): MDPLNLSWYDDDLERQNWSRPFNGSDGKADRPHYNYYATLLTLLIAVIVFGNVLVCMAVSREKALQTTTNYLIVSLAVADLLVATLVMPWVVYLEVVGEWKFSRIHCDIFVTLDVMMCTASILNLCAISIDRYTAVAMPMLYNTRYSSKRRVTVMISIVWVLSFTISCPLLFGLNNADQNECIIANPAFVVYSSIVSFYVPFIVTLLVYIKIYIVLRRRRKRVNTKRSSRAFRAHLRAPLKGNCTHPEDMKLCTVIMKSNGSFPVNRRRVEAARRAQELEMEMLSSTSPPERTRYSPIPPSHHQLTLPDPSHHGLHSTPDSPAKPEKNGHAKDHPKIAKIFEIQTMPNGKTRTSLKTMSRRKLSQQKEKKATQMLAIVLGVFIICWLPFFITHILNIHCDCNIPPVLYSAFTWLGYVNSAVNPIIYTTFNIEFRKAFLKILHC
T1 sequence (P35462 whole entry): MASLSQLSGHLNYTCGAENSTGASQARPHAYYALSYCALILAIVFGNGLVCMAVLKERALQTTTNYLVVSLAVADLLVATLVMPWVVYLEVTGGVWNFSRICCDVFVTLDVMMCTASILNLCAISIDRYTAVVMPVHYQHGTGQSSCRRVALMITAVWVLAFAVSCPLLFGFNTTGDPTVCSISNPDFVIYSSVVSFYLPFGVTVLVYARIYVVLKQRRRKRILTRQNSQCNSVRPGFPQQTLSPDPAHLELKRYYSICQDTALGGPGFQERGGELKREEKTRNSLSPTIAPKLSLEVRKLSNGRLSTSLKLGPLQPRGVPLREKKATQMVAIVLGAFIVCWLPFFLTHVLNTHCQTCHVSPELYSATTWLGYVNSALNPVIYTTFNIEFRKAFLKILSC

Row | Structure (SMILES) | hemolysis (percentage of ruptured cells) (human erythrocytes; 8 μg/ml) [%] | hemolysis (percentage of ruptured cells) (human erythrocytes; 16 μg/ml) [%] | hemolysis (percentage of ruptured cells) (human erythrocytes; 32 μg/ml) [%] | hemolysis (percentage of ruptured cells) (human erythrocytes; 62.5 μg/ml) [%] | hemolysis (percentage of ruptured cells) (human erythrocytes; 125 μg/ml) [%] | IC50 (Dopamine D3 receptor) [µM] | solubility [1] | stability ([1]; alkaline solution) | stability [1, 3] | IC50 [2] [µM]
1 | CCCCCCCCCCCCCCCC(=O)O[C@@H]1[C@H](OC(=O)CCCCC)[C@H](OC[C@@H](O)[C@@H](O)CO)O[C@H](COC(C)=O)[C@H]1OC(C)=O [Ustilipide A] | 0.0 | 0.0 | 0.0 | 0.0 | 0.1 | 7.09 | Colorless oil which is soluble in alcohols and other | medium but unstable in alkaline solution. | organic solvents. Stable in neutral and weakly acidic | 42.6
2 | CCCCCCCCCCCCCCCC(=O)O[C@@H]1[C@H](OC(=O)C(C)C)[C@H](OC[C@@H](O)[C@@H](O)CO)O[C@H](CO)[C@H]1OC(C)=O [Ustilipide C] | 0.0 | 0.4 | 0.4 | 0.5 | 0.8 | 18.9 | Colorless oil which is soluble in alcohols and other | medium but unstable in alkaline solution. | organic solvents. Stable in neutral and weakly acidic | 14.2
3 | CCCCCCCCCCCCCCCC(=O)O[C@@H]1[C@H](OC(=O)CCC)[C@H](OC[C@@H](O)[C@@H](O)CO)O[C@H](COC(C)=O)[C@H]1OC(C)=O [Ustilipide B] | 0.0 | 0.0 | 0.0 | 0.0 | 0.4 | 10.3 | Colorless oil which is soluble in alcohols and other | medium but unstable in alkaline solution. | organic solvents. Stable in neutral and weakly acidic | 23.6
